Species on record: Rattus norvegicus
Assay: DrugMatrix - Regimen: Daily Repeat
Format: toxicity, organism-based, Sprague-Dawley
Design: regimen Daily Repeat, gender Male, age 6-8 weeks
Settings: in vivo, ip, route intraperitoneal, vehicle 100 % SALINE; for ABSOLUTE BASOPHIL / ABSOLUTE EOSINOPHIL / ABSOLUTE LYMPHOCYTE / ABSOLUTE MONOCYTE / ABSOLUTE SEGMENTED NEUTROPHIL / BASOPHIL / EOSINOPHIL / ERYTHROCYTE COUNT / HEMATOCRIT / HEMOGLOBIN / LEUKOCYTE COUNT / LYMPHOCYTE / MEAN CORPUSCULAR HEMOGLOBIN / MEAN CORPUSCULAR HEMOGLOBIN CONCENTRATION / MEAN CORPUSCULAR VOLUME / MONOCYTE / NEUTROPHIL / PLATELET COUNT: tissue Blood
[1] = 0 mg/kg, 120 h, dose level Control, time 5 day
[2] = 0 mg/kg, 120 h, tissue Plasma, dose level Control, time 5 day
[3] = 0 mg/kg, […], dose level Control, time 14 day
[4] = 0 mg/kg, […], dose level Control, time 28 day
[5] = 0 mg/kg, […], tissue Plasma, dose level Control, time 14 day
[6] = 0 mg/kg, […], tissue Plasma, dose level Control, time 28 day

## COBALTOUS CHLORIDE
[1]
  ABSOLUTE BASOPHIL: 32 cells/µL
  ABSOLUTE EOSINOPHIL: 110 cells/µL
  ABSOLUTE LYMPHOCYTE: 6630 cells/µL
  ABSOLUTE MONOCYTE: 140 cells/µL
  ABSOLUTE SEGMENTED NEUTROPHIL: 1170 cells/µL
  BASOPHIL: 0.38%
  EOSINOPHIL: 1.28%
  ERYTHROCYTE COUNT: 7.45 x10E6/uL
  HEMATOCRIT: 45.74%
  HEMOGLOBIN: 14.72 G/DL
  LEUKOCYTE COUNT: 8.11 x10E3/uL
  LYMPHOCYTE: 81.3%
  MEAN CORPUSCULAR HEMOGLOBIN: 19.76 pg
  MEAN CORPUSCULAR HEMOGLOBIN CONCENTRATION: 32.16 G/DL
  MEAN CORPUSCULAR VOLUME: 61.38 fL
  MONOCYTE: 1.76%
  NEUTROPHIL: 14.9%
  PLATELET COUNT: 1322.4 x10E3/uL
[2]
  ALANINE AMINOTRANSFERASE: 25.8 u/L
  ALBUMIN: 3.64 G/DL
  ASPARTATE AMINOTRANSFERASE: 81.4 u/L
  BLOOD UREA NITROGEN: 14.4 mg/dL
  CHOLESTEROL: 69.2 mg/dL
  CREATINE PHOSPHOKINASE: 303.2 u/L
  CREATININE: 0.56 mg/dL
  GLUCOSE: 125.4 mg/dL
  LACTATE DEHYDROGENASE: 105.4 u/L
  LIPASE: 22.4 u/L
  POTASSIUM: 5.52 MEQ/L
  SODIUM: 147 MEQ/L
  TOTAL BILIRUBIN: 0.2 mg/dL
  TOTAL PROTEIN: 6.1 G/DL
  URIC ACID: 1.06 mg/dL
[3]
  ABSOLUTE BASOPHIL: 130 cells/µL
  ABSOLUTE EOSINOPHIL: 140 cells/µL
  ABSOLUTE LYMPHOCYTE: 13500 cells/µL
  ABSOLUTE MONOCYTE: 400 cells/µL
  ABSOLUTE SEGMENTED NEUTROPHIL: 2330 cells/µL
  BASOPHIL: 0.72%
  EOSINOPHIL: 0.86%
  ERYTHROCYTE COUNT: 7.74 x10E6/uL
  HEMATOCRIT: 45.98%
  LEUKOCYTE COUNT: 16.61 x10E3/uL
  LYMPHOCYTE: 81.34%
  MEAN CORPUSCULAR HEMOGLOBIN: 18 pg
  MEAN CORPUSCULAR HEMOGLOBIN CONCENTRATION: 30.22 G/DL
  MEAN CORPUSCULAR VOLUME: 59.4 fL
  MONOCYTE: 2.46%
  NEUTROPHIL: 14.14%
  PLATELET COUNT: 1445.5 x10E3/uL
[4]
  ABSOLUTE BASOPHIL: 91 cells/µL
  ABSOLUTE EOSINOPHIL: 110 cells/µL
  ABSOLUTE LYMPHOCYTE: 9910 cells/µL
  ABSOLUTE MONOCYTE: 210 cells/µL
  ABSOLUTE SEGMENTED NEUTROPHIL: 1560 cells/µL
  BASOPHIL: 0.77%
  EOSINOPHIL: 0.92%
  ERYTHROCYTE COUNT: 8.21 x10E6/uL
  HEMATOCRIT: 47.53%
  HEMOGLOBIN: 15.65 G/DL
  LEUKOCYTE COUNT: 11.91 x10E3/uL
  LYMPHOCYTE: 83.34%
  MEAN CORPUSCULAR HEMOGLOBIN: 19.07 pg
  MEAN CORPUSCULAR HEMOGLOBIN CONCENTRATION: 32.93 G/DL
  MEAN CORPUSCULAR VOLUME: 57.9 fL
  MONOCYTE: 1.68%
  NEUTROPHIL: 12.97%
  PLATELET COUNT: 1323.8 x10E3/uL
[5]
  ALANINE AMINOTRANSFERASE: 31.6 u/L
  ALBUMIN: 3.66 G/DL
  ALKALINE PHOSPHATASE: 228.6 u/L
  ASPARTATE AMINOTRANSFERASE: 79.6 u/L
  BLOOD UREA NITROGEN: 11.2 mg/dL
  CHLORIDE: 107 MEQ/L
  CHOLESTEROL: 57 mg/dL
  CREATININE: 0.5 mg/dL
  GLUCOSE: 124.4 mg/dL
  LACTATE DEHYDROGENASE: 106.4 u/L
  LIPASE: 24.4 u/L
  PHOSPHORUS: 10.52 mg/dL
  POTASSIUM: 6.34 MEQ/L
  SODIUM: 149.2 MEQ/L
  TOTAL BILIRUBIN: 0.2 mg/dL
  TOTAL PROTEIN: 6.48 G/DL
  URIC ACID: 0.94 mg/dL
[6]
  ALANINE AMINOTRANSFERASE: 30 u/L
  ALBUMIN: 3.71 G/DL
  ALKALINE PHOSPHATASE: 186.8 u/L
  ASPARTATE AMINOTRANSFERASE: 78.2 u/L
  BLOOD UREA NITROGEN: 14.2 mg/dL
  CHOLESTEROL: 44.9 mg/dL
  CREATINE PHOSPHOKINASE: 334.3 u/L
  CREATININE: 0.6 mg/dL
  GLUCOSE: 147.2 mg/dL
  LACTATE DEHYDROGENASE: 123.1 u/L
  LIPASE: 9.6 u/L
  PHOSPHORUS: 10.01 mg/dL
  POTASSIUM: 6.57 MEQ/L
  SODIUM: 149.5 MEQ/L
  TOTAL BILIRUBIN: 0.21 mg/dL
  TOTAL PROTEIN: 6.66 G/DL
  URIC ACID: 1.26 mg/dL
10 mg/kg, 120 h, dose level High, time 5 day
  ABSOLUTE BASOPHIL: 46 cells/µL

From ChEMBL document CHEMBL3885881, “DrugMatrix”
